Assay results published in ChEMBL document CHEMBL1201862, “PubChem BioAssay data set” (2004).
“And” between values parts separate entries of the source, which are not always exact repeats. Equal values may be shown once. The source made the active and inactive calls.

Experiments:
Coagulation factor XII = molecular target: T1, Coagulation factor XII (Homo sapiens, UniProt P00748); assay type: functional;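 also: activated factor XIIa alpha cleaving a fluorogenic AMC peptide substrate; inhibitor potency from loss of enzyme activity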
T1 sequence (P00748 whole entry): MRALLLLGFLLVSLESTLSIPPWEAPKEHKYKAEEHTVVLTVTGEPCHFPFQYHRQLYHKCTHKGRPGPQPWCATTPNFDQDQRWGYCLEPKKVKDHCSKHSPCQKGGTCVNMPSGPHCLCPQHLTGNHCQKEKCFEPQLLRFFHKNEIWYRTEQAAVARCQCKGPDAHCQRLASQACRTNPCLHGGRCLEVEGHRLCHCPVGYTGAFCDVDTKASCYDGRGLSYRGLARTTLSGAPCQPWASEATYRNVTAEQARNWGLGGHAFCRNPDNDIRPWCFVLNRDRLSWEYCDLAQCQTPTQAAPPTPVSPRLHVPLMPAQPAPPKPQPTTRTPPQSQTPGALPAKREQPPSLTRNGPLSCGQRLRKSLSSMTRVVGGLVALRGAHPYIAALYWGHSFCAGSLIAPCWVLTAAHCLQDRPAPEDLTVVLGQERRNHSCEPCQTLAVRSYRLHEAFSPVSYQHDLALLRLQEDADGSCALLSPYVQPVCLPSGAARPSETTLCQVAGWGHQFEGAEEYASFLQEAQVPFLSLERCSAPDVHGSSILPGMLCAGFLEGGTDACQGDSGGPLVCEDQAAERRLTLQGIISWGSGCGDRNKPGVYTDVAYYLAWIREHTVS

[1] = molecular target: T2, Short transient receptor potential channel 4 (Mus musculus, UniProt Q9QUQ5); assay: mouse TRPC4 channel inhibitors, dose response, cell-based, HEK293 TRPC4/mu-opioid, Fluo-4 calcium (AID 434942); assay type: functional;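 also: potency of inhibitors blocking the TRPC4 calcium response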
T2 sequence (Q9QUQ5 whole entry): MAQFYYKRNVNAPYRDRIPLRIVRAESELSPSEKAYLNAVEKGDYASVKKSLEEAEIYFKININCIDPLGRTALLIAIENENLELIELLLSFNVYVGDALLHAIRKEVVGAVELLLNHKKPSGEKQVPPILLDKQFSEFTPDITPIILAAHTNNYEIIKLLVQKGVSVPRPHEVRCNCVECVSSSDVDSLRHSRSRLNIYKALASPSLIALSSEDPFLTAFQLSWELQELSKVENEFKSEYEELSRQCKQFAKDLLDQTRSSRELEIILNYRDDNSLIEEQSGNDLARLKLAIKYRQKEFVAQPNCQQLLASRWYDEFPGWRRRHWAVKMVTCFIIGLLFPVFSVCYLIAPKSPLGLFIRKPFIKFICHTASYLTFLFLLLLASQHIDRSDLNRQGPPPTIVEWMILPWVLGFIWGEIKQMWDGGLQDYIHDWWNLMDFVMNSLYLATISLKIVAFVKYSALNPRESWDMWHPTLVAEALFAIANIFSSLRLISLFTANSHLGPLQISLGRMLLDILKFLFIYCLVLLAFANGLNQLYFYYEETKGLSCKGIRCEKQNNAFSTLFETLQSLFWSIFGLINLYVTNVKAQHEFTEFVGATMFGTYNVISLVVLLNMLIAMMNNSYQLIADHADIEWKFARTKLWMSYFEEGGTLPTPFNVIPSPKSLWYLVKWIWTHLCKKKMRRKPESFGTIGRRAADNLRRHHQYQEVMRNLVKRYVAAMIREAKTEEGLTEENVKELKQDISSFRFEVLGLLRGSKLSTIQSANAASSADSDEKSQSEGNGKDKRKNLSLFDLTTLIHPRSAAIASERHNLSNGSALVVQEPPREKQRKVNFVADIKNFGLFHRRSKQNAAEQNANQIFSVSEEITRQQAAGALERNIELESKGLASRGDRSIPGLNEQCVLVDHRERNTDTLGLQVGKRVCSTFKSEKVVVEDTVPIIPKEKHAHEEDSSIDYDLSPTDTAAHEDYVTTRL

Cytochrome P450 1A2 = molecular target: T3, Cytochrome P450 1A2 (Homo sapiens, UniProt P05177);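 also: PubChem cytochrome P450 panel assay, CYP1A2 panel member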
T3 sequence (P05177 whole entry): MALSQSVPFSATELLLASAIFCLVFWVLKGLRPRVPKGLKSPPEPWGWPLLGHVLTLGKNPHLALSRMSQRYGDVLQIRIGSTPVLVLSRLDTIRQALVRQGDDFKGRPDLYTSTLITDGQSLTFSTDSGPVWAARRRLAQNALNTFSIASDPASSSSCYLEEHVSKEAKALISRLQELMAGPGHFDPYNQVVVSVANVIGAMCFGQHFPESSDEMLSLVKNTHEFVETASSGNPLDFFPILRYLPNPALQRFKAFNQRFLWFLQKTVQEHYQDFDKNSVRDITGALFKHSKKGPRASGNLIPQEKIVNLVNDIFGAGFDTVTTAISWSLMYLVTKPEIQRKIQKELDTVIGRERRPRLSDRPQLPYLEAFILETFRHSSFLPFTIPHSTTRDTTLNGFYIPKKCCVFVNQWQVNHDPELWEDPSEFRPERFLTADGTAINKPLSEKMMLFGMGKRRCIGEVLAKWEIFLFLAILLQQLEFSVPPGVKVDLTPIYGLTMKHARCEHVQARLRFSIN

Cytochrome P450 2C9 [2] = molecular target: T4, Cytochrome P450 2C9 (Homo sapiens, UniProt P11712)
Jurkat = assay: antigen receptor-induced NF-kB inhibitors, dose response, Jurkat, luciferase reporter, luminescence, B- and T-cell (AID 489004); assay type: functional, cell-based; conditions: Homo sapiens;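 also: NF-kB luciferase reporter Jurkat cells stimulated with PMA plus ionomycin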
Cytochrome P450 2D6 = Cytochrome P450 2D6 (Homo sapiens, UniProt P10635);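 also: CYP2D6 member of a cytochrome P450 panel assay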
[3] = cytotoxicity in HEK-293T NF-kB-Luc cells, dose response, cytotoxicity control for B/T-cell NF-kB inhibitor project, cell-based, uHTS hits (AID 489019); assay type: functional;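 also: IC50 reflects cytotoxicity as loss of cell viability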
[4] = THP-1 cell cytotoxicity, dose response, cytotoxicity control for non-replicating M. tuberculosis project (AID 489025); assay type: functional
cells = assay type: functional
[5] = molecular target: Luciferin 4-monooxygenase (Photinus pyralis, UniProt P08659); assay: firefly luciferase enzyme inhibitors, dose response, biochemical, luminescence (AID 1891)
[6] = Luminescence Cell-Based Dose Confirmation HTS to Identify Inhibitors of Platelet Dense Granule Release. [Related pubchem assays: 1663 (Primary HTS), 1678 (Summary of Project)]; assay type: functional
Cytochrome P450 3A4 [7] = molecular target: T5, Cytochrome P450 3A4 (Homo sapiens, UniProt P08684);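 also: CYP3A4 tested as one member of a cytochrome P450 panel screen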
Cytochrome P450 3A4 [8] = molecular target: T5, Cytochrome P450 3A4; remark: listed apart in the source
Cytochrome P450 2C19 = Cytochrome P450 2C19 (Homo sapiens, UniProt P33261); assay: Cytochrome panel assay with activity outcomes. Panel member name: p450-cyp2c19 Compounds with AC50 equal or less than 10 uM are considered active; assay type: functional; conditions: read-out: AC50
[9] = Luminescence Cell-Based Dose Response HTS to Identify Activators of Luciferase Translation or Activity in H4 […] Cells. [Related pubchem assays: 1829 (Project Summary), 1814 (Primary HTS)]; assay type: functional
H4 = assay: Luminescence Cell-Based Dose Response HTS to Identify Activators of 5'UTR Stem-Loop Driven Prion Protein mRNA Translation in H4 Neuroglioblastoma Cells. [Related pubchem assays: 1829 (Project Summary), 1814 (Primary HTS)]; assay type: functional; conditions: Homo sapiens
[10] = Luminescence Cell-Based Dose Confirmation to Identify Activators of 5'UTR Stem-Loop Driven Alpha-Synuclein mRNA Translation in H4 Neuroglioblastoma Cells. [Related pubchem assays: 1829 (Project Summary), 1814 (Primary HTS)]; assay type: functional
[11] = Luminescence Cell-Based Dose Response to Identify Activators of 5'UTR Stem-Loop Driven Prion Protein mRNA Translation in H4-C Neuroglioblastoma Cells. [Related pubchem assays: 1829 (Project Summary), 1814 (Primary HTS)]; assay type: functional
[12] = Luminescence Cell-Based Dose Response to Identify Activators of Luciferase Translation or Activity in H4-C Neuroglioblastoma Cells. [Related pubchem assays: 1829 (Project Summary), 1814 (Primary HTS)]; assay type: functional
[13] = molecular target: T6, Heat shock factor protein 1 (Mus musculus, UniProt P38532); assay: HSF1 potentiators in luciferase reporter cells, confirmation, cell-based, NIH3T3, luminescence, dose retest (AID 435004); assay type: functional;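 also: stress induced by proteasome inhibitor MG132 added 30 min after compound; luciferase reporter driven by HSF1 response element in NIH3T3 cells; actives raise luminescence as potentiators of the MG132 stress response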
T6 sequence (P38532 whole entry): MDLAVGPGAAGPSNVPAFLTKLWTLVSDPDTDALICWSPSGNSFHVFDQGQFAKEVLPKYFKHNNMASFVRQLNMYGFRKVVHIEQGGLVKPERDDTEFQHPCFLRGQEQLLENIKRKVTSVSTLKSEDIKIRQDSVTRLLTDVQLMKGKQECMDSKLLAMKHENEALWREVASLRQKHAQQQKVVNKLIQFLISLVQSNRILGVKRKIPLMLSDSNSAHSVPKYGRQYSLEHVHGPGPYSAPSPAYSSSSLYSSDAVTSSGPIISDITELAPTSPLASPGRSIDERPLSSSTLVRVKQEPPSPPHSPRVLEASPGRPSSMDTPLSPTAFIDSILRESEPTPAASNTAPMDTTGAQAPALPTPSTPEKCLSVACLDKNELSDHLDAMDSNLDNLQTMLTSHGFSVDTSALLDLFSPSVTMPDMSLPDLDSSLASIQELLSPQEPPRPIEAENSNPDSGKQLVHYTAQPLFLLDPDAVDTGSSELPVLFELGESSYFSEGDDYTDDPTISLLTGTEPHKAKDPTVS

[14] = molecular target: T2, Short transient receptor potential channel 4; assay: mouse TRPC4 channel activators, dose response, cell-based, HEK293 TRPC4/mu-opioid, Fluo-4 calcium (AID 434937); assay type: functional
[15] = Luminescence Cell-Based Dose Confirmation HTS to Identify Activators of 5'UTR Stem-Loop Driven Alpha-Synuclein mRNA Translation in H4 Neuroglioblastoma Cells. [Related pubchem assays: 1829 (Project Summary), 1814 (Primary HTS)]; assay type: functional
Cytochrome P450 2C9 [16] = molecular target: T4, Cytochrome P450 2C9; remark: listed apart in the source
[17] = Luminescence Cell-Based Dose Retest to Confirm Inhibitors of Cancer Stem Cells. [Related pubchem assays (depositor defined):AID2717, AID2721]; assay type: functional; conditions: Homo sapiens

T5 sequence (P08684 whole entry): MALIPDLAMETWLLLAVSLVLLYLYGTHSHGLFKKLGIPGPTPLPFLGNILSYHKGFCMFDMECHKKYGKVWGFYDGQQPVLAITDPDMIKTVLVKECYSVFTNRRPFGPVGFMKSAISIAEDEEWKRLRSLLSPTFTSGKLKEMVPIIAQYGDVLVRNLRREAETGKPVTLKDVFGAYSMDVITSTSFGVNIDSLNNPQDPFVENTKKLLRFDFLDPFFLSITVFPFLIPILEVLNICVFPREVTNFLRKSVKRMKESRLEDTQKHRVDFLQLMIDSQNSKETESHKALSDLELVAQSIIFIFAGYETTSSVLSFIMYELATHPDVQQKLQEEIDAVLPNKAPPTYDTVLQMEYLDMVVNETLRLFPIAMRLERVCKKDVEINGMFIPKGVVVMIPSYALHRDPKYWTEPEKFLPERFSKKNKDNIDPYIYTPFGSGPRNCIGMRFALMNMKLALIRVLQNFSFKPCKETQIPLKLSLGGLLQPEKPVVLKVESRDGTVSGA
T4 sequence (P11712 whole entry): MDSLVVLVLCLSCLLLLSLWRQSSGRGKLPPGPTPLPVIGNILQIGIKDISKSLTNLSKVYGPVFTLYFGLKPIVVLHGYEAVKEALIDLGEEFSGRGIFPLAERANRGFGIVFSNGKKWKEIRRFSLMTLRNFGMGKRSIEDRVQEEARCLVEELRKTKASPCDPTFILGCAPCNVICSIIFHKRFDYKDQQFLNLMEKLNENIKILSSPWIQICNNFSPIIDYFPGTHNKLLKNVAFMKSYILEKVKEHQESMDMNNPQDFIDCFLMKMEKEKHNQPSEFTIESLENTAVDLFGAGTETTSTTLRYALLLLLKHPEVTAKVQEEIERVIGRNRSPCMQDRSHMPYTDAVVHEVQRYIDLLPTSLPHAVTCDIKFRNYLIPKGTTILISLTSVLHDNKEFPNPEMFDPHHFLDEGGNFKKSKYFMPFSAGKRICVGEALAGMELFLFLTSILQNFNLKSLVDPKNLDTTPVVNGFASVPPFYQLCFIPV
Chain of Cytochrome P450 2D6 (P10635 whole entry): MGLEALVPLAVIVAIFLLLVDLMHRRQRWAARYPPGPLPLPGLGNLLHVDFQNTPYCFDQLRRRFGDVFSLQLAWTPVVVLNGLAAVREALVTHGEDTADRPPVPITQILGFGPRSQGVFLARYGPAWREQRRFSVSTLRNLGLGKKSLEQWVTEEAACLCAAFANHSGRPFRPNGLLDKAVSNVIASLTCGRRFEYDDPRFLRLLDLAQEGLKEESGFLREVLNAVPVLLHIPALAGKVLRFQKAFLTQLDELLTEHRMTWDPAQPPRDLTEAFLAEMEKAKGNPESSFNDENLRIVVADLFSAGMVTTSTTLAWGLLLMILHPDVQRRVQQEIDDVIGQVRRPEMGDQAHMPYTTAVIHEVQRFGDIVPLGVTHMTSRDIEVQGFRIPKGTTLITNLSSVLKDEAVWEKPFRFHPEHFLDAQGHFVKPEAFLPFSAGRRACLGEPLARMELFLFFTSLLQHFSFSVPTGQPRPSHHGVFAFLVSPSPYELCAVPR
Chain of Cytochrome P450 2C19 (P33261 whole entry): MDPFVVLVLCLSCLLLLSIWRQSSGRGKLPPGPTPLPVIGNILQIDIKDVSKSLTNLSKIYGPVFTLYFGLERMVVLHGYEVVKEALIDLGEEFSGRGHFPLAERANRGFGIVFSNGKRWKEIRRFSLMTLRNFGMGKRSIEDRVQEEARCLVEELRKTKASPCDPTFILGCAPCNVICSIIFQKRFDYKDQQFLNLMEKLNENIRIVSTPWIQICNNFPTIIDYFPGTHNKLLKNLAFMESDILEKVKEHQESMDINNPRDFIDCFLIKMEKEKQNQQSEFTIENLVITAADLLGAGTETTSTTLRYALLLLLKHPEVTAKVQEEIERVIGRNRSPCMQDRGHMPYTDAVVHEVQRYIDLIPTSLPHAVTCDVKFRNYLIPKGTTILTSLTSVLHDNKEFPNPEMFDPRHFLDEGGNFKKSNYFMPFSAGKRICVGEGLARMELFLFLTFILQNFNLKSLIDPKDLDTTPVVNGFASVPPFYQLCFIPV
Chain of Luciferin 4-monooxygenase (P08659 whole entry): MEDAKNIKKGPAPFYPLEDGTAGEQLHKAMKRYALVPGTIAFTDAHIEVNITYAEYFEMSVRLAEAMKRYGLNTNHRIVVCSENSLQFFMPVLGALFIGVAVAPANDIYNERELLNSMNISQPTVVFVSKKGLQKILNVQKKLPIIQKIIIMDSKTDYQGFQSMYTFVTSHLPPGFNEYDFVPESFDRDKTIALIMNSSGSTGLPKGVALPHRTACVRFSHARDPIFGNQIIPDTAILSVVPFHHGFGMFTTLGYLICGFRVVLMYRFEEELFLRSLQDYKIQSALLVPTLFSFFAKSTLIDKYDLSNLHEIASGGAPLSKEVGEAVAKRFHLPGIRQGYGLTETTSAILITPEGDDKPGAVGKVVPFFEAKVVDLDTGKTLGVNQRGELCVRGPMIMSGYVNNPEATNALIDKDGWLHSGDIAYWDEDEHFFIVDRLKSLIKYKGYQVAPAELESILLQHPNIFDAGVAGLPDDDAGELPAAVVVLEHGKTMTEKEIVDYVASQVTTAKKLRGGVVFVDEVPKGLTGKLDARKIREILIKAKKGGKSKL

CNC(=O)c1ccc(N(Cc2ccccc2)S(C)(=O)=O)cc1
IC50 (Coagulation factor XII): > 50000 nM (inactive)

O=C(C1CCN(CC2CC=CCC2)CC1)N(CCc1ccccc1)Cc1ccccc1 (centres undefined)
EC50 [1]: 2660 nM (active)

COc1ccc(OC)c(C2C3=C(O)OCC3=Nc3cc4c(cc32)OCO4)c1 (centres undefined)
AC50 (Cytochrome P450 1A2): 10000 nM (inconclusive)
AC50 (Cytochrome P450 2C9 [2]): 7940 nM (inconclusive)
IC50 (Jurkat): > 80000 nM (inactive)
AC50 (Cytochrome P450 2D6): 22.4 µM (inconclusive)
IC50 [3]: > 80000 nM (inactive)

O=C(CCc1ccc(Oc2cc([N+](=O)[O-])cc([N+](=O)[O-])c2)cc1)N1CCCCC1
CC50 [4]: > 40000 nM (active)
IC50 (cells): 11400 nM (active)

Cc1ccc(C(=O)ONc2ccc(N=O)cc2)cc1
IC50 (Coagulation factor XII): 29800 nM (active)
EC50 [5]: < 88 nM (active)
EC50 [6]: 2690 nM (active)

CCCCNc1nc2ccccc2[nH]1
EC50 [1]: 2990 nM (active)

N=C(N)NC(=N)Nc1cccc(Cl)c1
AC50 (Cytochrome P450 3A4 [7]): inconclusive
AC50 (Cytochrome P450 3A4 [8]): 79400 nM (inconclusive)
AC50 (Cytochrome P450 2D6): 25.1 µM (inconclusive) and 39.8 µM (inconclusive)

Cc1cc(=O)n2c(n1)SCOC2
IC50 (Coagulation factor XII): > 50000 nM (inactive)

CCOC(=O)c1ccc(N2C(=O)CC(Nc3ccc(CCO)cc3)C2=O)cc1 (centres undefined)
AC50 (Cytochrome P450 3A4 [7]): inconclusive
AC50 (Cytochrome P450 2C9 [2]): 6310 nM (inconclusive)
AC50 (Cytochrome P450 2C19): 8910 nM (inconclusive)

O=C(Nc1nccs1)c1c(O)nc2c(c1O)CCCC2
EC50 [9]: 999 nM (active)
EC50 (H4): < 100 nM (active)
EC50 [10]: 475 nM (active)
EC50 [11]: 504 nM (active)
EC50 [12]: 446 nM (active)

CN(NC1OC(=O)c2ccccc21)c1ncc(Cl)cc1C(F)(F)F (centres undefined)
EC50 [13]: > 260000 nM (inactive)
IC50 (Coagulation factor XII): > 50000 nM (inactive)

COc1ccc(CCN(C)CCN2C(=O)c3ccccc3C2=O)cc1OC
EC50 [1]: 1880 nM (active)
EC50 [14]: 1060 nM (active)

O=C(Nc1ccccc1)N1CC=C(c2ccccc2)CC1
EC50 (H4): < 100 nM (active)
EC50 [10]: 272 nM (active)
EC50 [11]: 376 nM (active)
EC50 [12]: 237 nM (active)

O=C(c1cnccn1)N1CCC2(CC1)CCN(c1ccccn1)CC2
AC50 (Cytochrome P450 3A4 [7]): inconclusive

COc1cc2c(cc1OC)[C@H](c1ccccc1)CN(C)CC2
AC50 (Cytochrome P450 3A4 [7]): inconclusive
AC50 (Cytochrome P450 2D6): 31.6 µM (inconclusive)

c1csc(-c2nc(N3CCCCC3)no2)c1
EC50 [9]: < 100 nM (active)
EC50 [15]: < 100 nM (active)
EC50 (H4): 1220 nM (active)
EC50 [10]: 290 nM (active)
EC50 [11]: 380 nM (active)
EC50 [12]: 360 nM (active)

COC(=O)Cc1c(C)nc2ncnn2c1O
IC50 (Coagulation factor XII): > 50000 nM (inactive)

COCCn1c(SCC(=O)c2ccccc2)nc2ccccc2c1=O
EC50 [1]: 376 nM (active)

OC1(c2ccc(Cl)cc2)CCN(Cc2c[nH]c3ccccc23)CC1
AC50 (Cytochrome P450 2C9 [16]): inconclusive
AC50 (Cytochrome P450 3A4 [7]): inconclusive

CC(=O)O[C@H]1[C@H]2O[C@]23[C@@H]2CC[C@]4(O)C[C@@H](O)CC[C@]4(C)[C@H]2CC[C@]3(C)[C@H]1c1ccc(=O)oc1 [CINOBUFOTALIN]
AC50 [17]: < 160 nM (active)
IC50 (Jurkat): 3190 nM (active)
IC50 [3]: > 80000 nM (inactive)
